According to PubChem BioAssay (NCI):
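Protocol summary: plate cells (96-well), add compound at 5 concentrations, incubate 48 h, interpolate endpoints linearly. TGI denotes the concentration required for complete inhibition of growth.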

Tests used:
Test in all cases: NCI-60 cell line screen, 48 h
[1] = system: UACC-257 melanoma
[2] = system: DMS 273 small cell lung
[3] = system: DLD-1 colon
[4] = system: COLO 205 colon
[5] = system: TK-10 renal
[6] = system: HL-60(TB) leukemia
[7] = system: HCC-2998 colon
[8] = system: T-47D breast
[9] = system: HS 578T breast
[10] = system: DU-145 prostate
[11] = system: NCI/ADR-RES ovarian

Structure (SMILES) | TGI [1] [µM] | TGI [2] [µM] | TGI [3] [µM] | TGI [4] [µM] | TGI [5] [µM] | TGI [6] [µM] | TGI [7] [µM] | TGI [8] [µM] | TGI [9] [µM] | TGI [10] [µM] | TGI [11] [µM]
NCCCCNCCCNC(=O)c1nc(-c2csc(CCN)n2)sc1Cl | > 100 | > 100 | > 100 | > 100 | > 100 | > 100 | > 100 | – | – | – | –
CCO/C(O)=C(/C(=N)N1CCCC1)C(=O)Nc1cccc(C(F)(F)F)c1 | > 100 | – | – | > 100 | > 100 | > 100 | > 100 | > 100 | 70.6 | > 100 | > 100
CC(=Nc1ccncc1)C(C)=Nc1ccncc1 | > 100 | – | – | 31 | > 100 | 87.2 | 47.9 | 77.7 | 98.9 | > 100 | > 100
C=C(C)C1CC=C(C)C2(C1)OCC(C)(C)C(C)O2 (configuration not stated) | 81.9 | – | – | 34.5 | > 100 | 35.5 | 93.2 | 55.4 | > 100 | > 100 | 37.5
CN(C)CCNc1ncnc2nc(-c3ccc4ccccc4c3)[nH]c12 | > 100 | – | – | > 100 | > 100 | > 100 | > 100 | > 100 | > 100 | > 100 | > 100
c1ccc2c(c1)nc1n2CCSC1 | > 100 | – | – | > 100 | > 100 | > 100 | > 100 | > 100 | > 100 | > 100 | > 100
Cc1cc(=O)oc2cc(O)ccc12 | > 100 | – | – | > 100 | > 100 | > 100 | > 100 | > 100 | > 100 | > 100 | > 100
COc1cc(C2S/C(=C/c3ccccc3)C(=O)N2c2ccc(Cl)c(Cl)c2)cc(OC)c1OC (configuration not stated) | > 100 | – | – | > 100 | > 100 | > 100 | > 100 | > 100 | > 91.5 | > 100 | > 100
COc1cc2c(cc1OC)-c1c3c(cc4c1[C@@H](C2)N(C)CC4)OCO3 | 26 | 14.5 | 49.5 | 32.1 | – | 29.9 | 23.8 | – | – | – | 30.2
CC(=O)c1cc2c(s1)C(=O)c1ccccc1C2=O | 3.15 | – | – | 28.9 | 42.3 | > 100 | 18.3 | 20.6 | > 67.6 | 12 | 6.17
[N-]=[N+]=Nc1ccc(CNc2cc(=O)[nH]c(=O)[nH]2)cc1 | > 100 | – | – | > 100 | > 100 | > 100 | > 100 | > 100 | > 100 | > 100 | > 100
CSC1=NS(=O)(=O)c2cc(C(=O)NN(C)C(=O)c3cc4c(cc3Cl)SC(SC)=NS4(=O)=O)c(Cl)cc2S1 | > 10 | – | – | > 10 | > 10 | > 10 | > 10 | > 10 | > 10 | > 10 | > 10
COc1ccc2nc3cc(Cl)ccc3c(NCCNCCCNC(=O)c3cc(-c4ccccc4)nc4ccccc34)c2c1 | > 100 | – | – | > 100 | > 100 | > 100 | > 100 | > 100 | > 100 | > 100 | > 100
O=C1C(Br)=C(c2ccccc2)S(=O)c2ccccc21 (configuration not stated) | 25.8 | – | – | 3.95 | 32.2 | 6.63 | 27.9 | 10.6 | 80.6 | 27.9 | > 100
COc1ccc(OC)c2c1C1CCC(=O)N1CN2C(C)=O (configuration not stated) | > 100 | – | – | > 100 | > 100 | > 100 | > 100 | > 100 | > 100 | > 100 | > 100
Cc1c(-c2ccccc2)c(C#N)c2nnc(C(N)=O)c(N)n12 | > 100 | – | – | > 100 | > 100 | > 100 | > 100 | > 100 | > 100 | > 100 | > 100
OC12CC/C(=N/OCc3ccccc3)CC1c1ccccc12 (configuration not stated) | > 100 | > 100 | > 100 | > 100 | > 100 | > 100 | > 100 | – | – | – | –
CC(=O)OC1[C@H]2c3cc4c(cc3CN3CCC(=C[C@@H]1O)C23)OCO4 (some centres not stated) | > 100 | > 100 | > 100 | > 100 | > 100 | > 100 | > 100 | – | – | – | –

Structure (SMILES) | TGI [1] [µM] | TGI [2] [µM] | TGI [3] [µM] | TGI [4] [µM] | TGI [5] [µM] | TGI [6] [µM] | TGI [7] [µM] | TGI [8] [µM] | TGI [9] [µM] | TGI [10] [µM] | TGI [11] [µM]
CCOC(=O)C(CS)NC(=O)CCCCCCCC(=O)NC(CS)C(=O)OCC (configuration not stated) | > 100 | – | – | > 100 | > 100 | > 100 | > 100 | > 100 | > 100 | > 100 | > 100
Cc1c(NC2(C)C(=O)N(/N=C/c3ccccc3)N=C2c2ccccc2)n[nH]c1-c1ccccc1 (configuration not stated) | > 100 | – | – | > 100 | > 100 | > 100 | > 100 | > 100 | > 100 | > 100 | > 100
S=C(S)NCC1CCC(CNC(=S)S)CC1 (configuration not stated) | 87.1 | – | – | > 100 | 51.7 | > 100 | 48.3 | 38.9 | > 100 | 63.4 | > 100
Cn1nc(S(N)(=O)=O)s/c1=N/C(N)=S | > 100 | – | – | > 100 | > 100 | > 100 | > 100 | > 100 | > 100 | > 100 | > 100
CC(=O)N1CCN(C23OC4(N5CCN(C(C)=O)CC5)C5C6CC(C7C6C4C72)C53)CC1 (configuration not stated) | > 100 | – | – | > 100 | > 100 | > 100 | > 100 | > 100 | > 100 | > 100 | > 100
c1ccc2c(Cc3nnc4sc(SSc5nn6c(Cc7c[nH]c8ccccc78)nnc6s5)nn34)c[nH]c2c1 | > 100 | – | – | 50.9 | > 100 | 75.7 | 30.4 | > 100 | 56.8 | 67.4 | 44.4
O=c1[nH]c2cc3[nH]c4ncccc4c(=O)c3cc2[nH]1 | > 10 | – | – | > 10 | > 10 | > 10 | > 10 | > 10 | > 10 | > 10 | > 10
Cn1cnc2c(sc3nc4ccccc4n32)c1=N | > 100 | – | – | > 100 | > 100 | > 100 | > 100 | > 100 | > 100 | > 100 | > 100
CN(C)CCCOCCn1c2c(c3ccccc31)CCCC2 | 33.3 | – | – | 32.3 | 32.6 | 20.7 | 28.4 | 49.7 | 51.6 | 67.7 | 35.2
N#CC(NNC(=O)c1ccccc1O)c1cccc(O)c1 (configuration not stated) | > 100 | > 100 | > 100 | > 100 | > 100 | 73.9 | – | – | – | – | –
CC(=O)c1cc2ccccc2n(O)c1=N | > 100 | – | – | > 100 | > 100 | > 100 | > 100 | > 100 | > 100 | > 100 | > 100
CC(C)OP(=O)(OC(C)C)C(C(C)C)N(C)/C(F)=N/C(F)(F)F (configuration not stated) | > 100 | – | – | > 100 | > 100 | > 100 | > 100 | > 100 | > 100 | > 100 | > 100
CC1(COS(=O)(=O)OCC2(C)COS(=O)(=O)OC2)COS(=O)(=O)OC1 | > 100 | – | – | > 100 | > 100 | > 58 | > 100 | > 100 | > 100 | > 88.6 | > 100
CC(=O)Oc1ccc(C2COc3cc(OC(C)=O)c(OC(C)=O)cc3C2)cc1 (configuration not stated) | 34.9 | 61.6 | 38 | 35.4 | – | 20.3 | 46.8 | – | – | – | 48.7
COC(=O)C1(Cc2ccccc2)Cc2ccccc2C1 | 65.6 | – | – | 35.8 | > 100 | 45.8 | 98.2 | 90.8 | > 100 | > 100 | 69.2
CSc1c(C#N)c2n(c3ccccc13)c1ccccc1[n+]2C | 67.8 | – | – | 38.6 | 93.6 | 56.9 | 64.8 | > 100 | > 100 | 92.6 | 68.4
O=c1[nH]c(Nc2cccc(Cl)c2)nc2nc[nH]c12 | > 100 | – | – | > 100 | > 100 | > 100 | > 100 | > 100 | > 100 | > 100 | > 100
